US9708314B2, “Heterocyclic amide compound” (NISSAN CHEMICAL INDUSTRIES, LTD., priority 2013, dated 2017)

Assays:
Format in all cases: in vivo
Leptochloa chinensis = assay: Test Example 3: herbicidal effect by application to foliage (Wagner pot, water depth 0.1-0.5 cm); conditions: Nineteenth Table; application to foliage; application herbicide amount 320 g/ha
In short: (§1)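 Greenhouse pot test, 25–30 °C, alluvial soil. Sown seedlings grown 14 days then sprayed on leaves and stems with emulsion diluted to target g/ha. Rating at 3 weeks, 0–5 scale (0 ≤5%, 5 ≥90%).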

[1] = system: Echinochloa crus-galli var. crus-galli; assay: as above; conditions: Nineteenth Table; application to foliage; application herbicide amount 320 g/ha
In short: as §1

Cyperus difformis = assay: as above; conditions: Nineteenth Table; application to foliage; application herbicide amount 320 g/ha
In short: as §1

Setaria viridis = assay: Test Example 4: herbicidal effect by application to foliage (diluvial soil, plastic box); conditions: for G (Setaria viridis) herbicidal effect grade: foliage application; for G: herbicidal effect on Setaria viridis: application to foliage, application herbicide amount 320 g/ha
In short: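 Emulsion-formulated compound, diluted to a predetermined g/ha dose, applied by small sprayer to leaves and stems of 14-day-old seedlings grown in sterilized diluvial soil. Effect rated on 0–5 herbicidal-ratio scale three weeks on.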

[2] = system: transplanted Oryza sativa; assay: Test Example 1: effect on crop, application before weed generation in submerged conditions; conditions: Application herbicide amount 320 g/ha; Seventeenth Table
In short: (§2)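 Rating, on a six-step scale from almost no effect (0) to almost completely withered (5), was made three weeks after pre-emergence treatment. Treatment was surface application to flooded pots at g/ha rates, with plants kept at 25° C. to 30° C.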

[3] = system: directly sowed Oryza sativa; assay: Test Example 3: effect on crop by application to foliage (Wagner pot, water depth 0.1-0.5 cm); conditions: Nineteenth Table; application to foliage; application herbicide amount 320 g/ha
In short: as §1

Monochoria vaginalis = assay: Test Example 1: herbicidal activity, application before weed generation in submerged conditions; conditions: Application herbicide amount 320 g/ha; Seventeenth Table
In short: as §2

[4] = system: Echinochloa oryzacola Vasing.; assay: as above; conditions: Application herbicide amount 320 g/ha; Seventeenth Table
In short: as §2

Scirpus juncoides = assay: as above; conditions: Application herbicide amount 320 g/ha; Seventeenth Table
In short: as §2

[5] = Application herbicide amount 320 g/ha

Structure (SMILES) | D (herbicidal effect grade) (Leptochloa chinensis) | H (herbicidal effect grade) [1] | E (herbicidal effect grade) (Cyperus difformis) | G (Setaria viridis) herbicidal effect grade (Setaria viridis; [5]) | a: transplanted Oryza sativa (effect on crop grade) [2] | b (effect on crop grade) [3] | C: Monochoria vaginalis (herbicidal effect grade) (Monochoria vaginalis) | A: Echinochloa oryzicola Vasing. (herbicidal effect grade) [4] | B: Scirpus juncoides (herbicidal effect grade) (Scirpus juncoides) | G: herbicidal effect on Setaria viridis (Setaria viridis) | G (Setaria viridis; [5])
CCCSc1nnc2c(C(=O)Nc3nnco3)ccc(C(F)(F)F)n12 [1-108] | 5 (Herbicidal ratio of 90% or more (almost completely withered)) | 5 (Herbicidal ratio of 90% or more (almost completely withered)) | 5 (Herbicidal ratio of 90% or more (almost completely withered)) | 5 (Herbicidal ratio of 90% or more (almost completely withered)) | 0 (Herbicidal ratio of 5% or less (almost no effect)) | 1 (Herbicidal ratio of 5% or more and less than 20%) | 5 (Herbicidal ratio of 90% or more (almost completely withered)) | 5 (Herbicidal ratio of 90% or more (almost completely withered)) | 5 (Herbicidal ratio of 90% or more (almost completely withered)) |  | 
Cn1nnnc1NC(=O)c1ccc(C(F)(F)F)n2c(C3CCCC3)nnc12 [2-021] | 5 (Herbicidal ratio of 90% or more (almost completely withered)) | 5 (Herbicidal ratio of 90% or more (almost completely withered)) | 5 (Herbicidal ratio of 90% or more (almost completely withered)) |  | 4 (Herbicidal ratio of 70% or more and less than 90%) | 5 (Herbicidal ratio of 90% or more (almost completely withered)) | 5 (Herbicidal ratio of 90% or more (almost completely withered)) | 5 (Herbicidal ratio of 90% or more (almost completely withered)) | 5 (Herbicidal ratio of 90% or more (almost completely withered)) | 5 (Herbicidal ratio of 90% or more (almost completely withered)) | 
C=CCSc1nnc2c(C(=O)Nc3nnc(C)o3)ccc(C(F)(F)F)n12 [1-064] | 4 (Herbicidal ratio of 70% or more and less than 90%) | 5 (Herbicidal ratio of 90% or more (almost completely withered)) | 4 (Herbicidal ratio of 70% or more and less than 90%) |  | 0 (Herbicidal ratio of 5% or less (almost no effect)) | 2 (Herbicidal ratio of 20% or more and less than 40%) | 3 (Herbicidal ratio of 40% or more and less than 70%) | 5 (Herbicidal ratio of 90% or more (almost completely withered)) | 4 (Herbicidal ratio of 70% or more and less than 90%) |  | 4 (Herbicidal ratio of 70% or more and less than 90%)
CCN(C)c1nnc2c(C(=O)Nc3nnco3)ccc(C(F)(F)F)n12 [1-137] | 5 (Herbicidal ratio of 90% or more (almost completely withered)) | 5 (Herbicidal ratio of 90% or more (almost completely withered)) | 4 (Herbicidal ratio of 70% or more and less than 90%) | 5 (Herbicidal ratio of 90% or more (almost completely withered)) | 3 (Herbicidal ratio of 40% or more and less than 70%) | 3 (Herbicidal ratio of 40% or more and less than 70%) | 5 (Herbicidal ratio of 90% or more (almost completely withered)) | 5 (Herbicidal ratio of 90% or more (almost completely withered)) | 5 (Herbicidal ratio of 90% or more (almost completely withered)) |  | 
CC(C)N(C)c1nnc2c(C(=O)Nc3nnco3)ccc(C(F)(F)F)n12 [1-122] | 5 (Herbicidal ratio of 90% or more (almost completely withered)) | 5 (Herbicidal ratio of 90% or more (almost completely withered)) | 5 (Herbicidal ratio of 90% or more (almost completely withered)) | 5 (Herbicidal ratio of 90% or more (almost completely withered)) | 3 (Herbicidal ratio of 40% or more and less than 70%) | 3 (Herbicidal ratio of 40% or more and less than 70%) | 5 (Herbicidal ratio of 90% or more (almost completely withered)) | 5 (Herbicidal ratio of 90% or more (almost completely withered)) | 5 (Herbicidal ratio of 90% or more (almost completely withered)) |  | 
CCN(C)c1nnc2c(C(=O)Nc3nnc(C)o3)ccc(C(F)(F)F)n12 [1-134] | 4 (Herbicidal ratio of 70% or more and less than 90%) | 5 (Herbicidal ratio of 90% or more (almost completely withered)) | 2 (Herbicidal ratio of 20% or more and less than 40%) | 3 (Herbicidal ratio of 40% or more and less than 70%) | 0 (Herbicidal ratio of 5% or less (almost no effect)) | 2 (Herbicidal ratio of 20% or more and less than 40%) | 2 (Herbicidal ratio of 20% or more and less than 40%) | 3 (Herbicidal ratio of 40% or more and less than 70%) | 3 (Herbicidal ratio of 40% or more and less than 70%) |  | 
CN(c1nnc2c(C(=O)Nc3nnco3)ccc(C(F)(F)F)n12)C1CCCCC1 [1-123] | 4 (Herbicidal ratio of 70% or more and less than 90%) | 4 (Herbicidal ratio of 70% or more and less than 90%) | 4 (Herbicidal ratio of 70% or more and less than 90%) | 3 (Herbicidal ratio of 40% or more and less than 70%) | 1 (Herbicidal ratio of 5% or more and less than 20%) | 1 (Herbicidal ratio of 5% or more and less than 20%) | 4 (Herbicidal ratio of 70% or more and less than 90%) | 5 (Herbicidal ratio of 90% or more (almost completely withered)) | 4 (Herbicidal ratio of 70% or more and less than 90%) |  | 
Cn1nnnc1NC(=O)c1ccc(C(F)(F)F)n2c(-c3ccccc3)nnc12 [2-007] | 5 (Herbicidal ratio of 90% or more (almost completely withered)) | 5 (Herbicidal ratio of 90% or more (almost completely withered)) | 5 (Herbicidal ratio of 90% or more (almost completely withered)) |  | 3 (Herbicidal ratio of 40% or more and less than 70%) | 4 (Herbicidal ratio of 70% or more and less than 90%) | 5 (Herbicidal ratio of 90% or more (almost completely withered)) | 5 (Herbicidal ratio of 90% or more (almost completely withered)) | 5 (Herbicidal ratio of 90% or more (almost completely withered)) | 4 (Herbicidal ratio of 70% or more and less than 90%) | 
